Measurements taken from article PMC13625682, “Inhibitor fluorination pattern modulates protein surface dynamics and chemically induced dimerization” (Chemical Science, 2026).
Like-named read-outs stand apart in the source and are kept apart here.

T1: Tpx WT (Trypanosoma brucei brucei, UniProt O77404)
T1 construct: with residue G1 and end with N144; GAMG (TEV-cleavage scar that replaces Met1); Trx-His6 (thioredoxin fusion with His6 tag) (N, cleaved yes); made in house; host or cells: E. coli BL21-Gold(DE3)
T1 sequence (O77404 with tags, fused parts or gaps limits assumed): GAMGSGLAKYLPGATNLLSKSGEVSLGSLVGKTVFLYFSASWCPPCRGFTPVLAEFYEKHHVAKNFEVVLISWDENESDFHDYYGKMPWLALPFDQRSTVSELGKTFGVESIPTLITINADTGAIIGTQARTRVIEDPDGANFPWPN

T2: Tryparedoxin (Trypanosoma brucei, UniProt O77404)
T2 chain: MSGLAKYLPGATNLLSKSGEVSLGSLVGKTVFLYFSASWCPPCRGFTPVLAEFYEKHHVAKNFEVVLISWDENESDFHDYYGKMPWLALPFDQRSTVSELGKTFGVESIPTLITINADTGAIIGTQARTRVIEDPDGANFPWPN

B1: Tryparedoxin (protein)
chain: T2 chain
modifications: meta-CFT covalently bound at C40
B2: Tryparedoxin (protein)
chain: T2 chain
modifications: CtFT covalently bound at C40

Key:
[1] = test system: T. brucei brucei 449 Lister 427 parasites; test: Trypanosome cell survival assay (ATPlite luminescence); assay type: cell-based, Trypanosoma brucei brucei; settings: for Selectivity index (24 h), EC50 HEK293 cells divided by EC50 T. brucei: HEK293 vs T. brucei brucei 449, 24 h; for EC50: Trypanosoma brucei
Procedure: Trypanosome and HEK293 Cell Survival Assays
Half maximal effective concentration (EC50) values of compounds 1- 5 against T. brucei brucei 449 Lister 427 parasites were determined with an ATPlite Luminescence assay as described previously.4,5 The EC50 was defined as the compound concentration at which a fifty percent decrease in relative […]
(§1) 1-5 in human embryonic kidney (HEK293) was determined with a resazurin assay, which is based on the reduction of resazurin to fluorescent resorufin by living cells.6 HEK293 cells were maintained in DMEM high glucose supplemented with 10% FBS, 1% penicillin/streptomycin and 1% L-glutamine at 37 °C and 5% CO2. For the toxicity screen, 40000 cells per well were seeded in a 48 well plate (400 µL medium/well) and incubated at 37 °C for 24 hours before treatment with inhibitors 1-5. Cells were treated with 0.1 µM, 0.3 µM, 0.7 µM, 1 µM, 3 µM, 7 µM, 10 µM, 30 µM, 70 µM and 100 µM of the respective inhibitor, DMSO treatment served as negative control. The overall DMSO concentration was kept at 1 vol.% DMSO per well. After 24 hours of treatment, the medium was exchanged with a medium/resazurin mixture (0.015 mg/mL resazurin per well) and the cells were incubated for 3 h at 37 °C before transferring 100 µl medium from each well into a black opaque-walled 96-well plate. Fluorescence was directly measured using a CLARIOstar Plus reader (BMG Labtech GmbH, Ortenberg, Germany) with a 545-20 nm excitation / 600-40 nm emission filter. Each experiment was done in biological quadruplets and cell viability was analyzed in comparison to the DMSO control by plotting relative fluorescence units (RFU) against inhibitor concentration (Prism, Graphpad). A fifty percent decrease in relative fluorescence indicated the compound concentration where half of the HEK293 cells had died, which […]
(§2) In Vitro Tpx Activity Assay and Inactivation Kinetics
(§3) To reconstitute the peroxide clearance cascade (PCC), its components (at final concentrations of 360 µM NADPH, 0.1 U/mL TR, 110 µM TS2, 5 µM Tpx, 180 nM Px, 100 µM H2O2) were mixed in a total volume of 200 µL in a 10 mm quartz cuvette. First, 15 µL NADPH (4.8 mM in TR buffer (40 mM HEPES pH 7.5, 1 mM Na-EDTA), 10 µL TR (2 U/mL in TR buffer), 10 µL TS2 (2.2 mM in sterile filtered, deionized

Tpx [2] = test system: T3, Tpx; test: SEC-MALS of Tpx/inhibitor complexes; assay type: binding, Trypanosoma brucei; settings: for SEC-MALS Mw of Tpx/inhibitor complex: 100 µM analyte, value ± measurement error
T3 construct: with residue G1 and end with N144; GAMG (TEV-cleavage scar that replaces Met1); Trx-His6 (thioredoxin fusion with His6 tag) (N, cleaved yes); made in house; host or cells: E. coli BL21-Gold(DE3)
Procedure: Size Exclusion Chromatography Coupled To Multi-Angle Light Scattering (SEC-MALS) To determine the oligomeric state of Tpx/inhibitor complexes by SEC-MALS, 100 µM of purified Tpx/inhibitor complexes were applied to a SEC column (Superdex75 10/300, GE Healthcare) in Tpx buffer (25 mM NaPi pH 7.5, 150 mM NaCl) at a flow rate of 0.5 ml/min at room temperature. The molecular weights of the eluting proteins were measured using a Dawn Heleos 8+ light scattering detector and an Optilab T-rEX refractive index detector (Wyatt Technologies). Data were analyzed with […]

HEK293 cells = test: HEK293 cell survival assay (resazurin); assay type: cell-based; settings: Homo sapiens; HEK293, 24 h incubation
Procedure: Trypanosome and HEK293 Cell Survival Assays […]
as §1, §2, §3

Tpx [3] = test system: T3, Tpx; test: In vitro Tpx activity assay: reconstituted peroxide clearance cascade, NADPH consumption followed photometrically; assay type: biochemical, Trypanosoma brucei; settings: for second-order rate constant k2nd of irreversible Tpx inhibition: 5 µM Tpx, 25 °C, slope of kobs vs inhibitor concentration; for speed of Tpx inactivation: Tpx-equimolar concentrations (5 µM)
Tpx WT = biological target: T1, Tpx WT; test: Dilution ITC of covalent Tpx/inhibitor complexes (dimer dissociation); assay type: binding; settings: according to dimer KD
Procedure: Isothermal Titration Calorimetry (ITC)
Dissociation coefficients (K D) of dimeric Tpx/inhibitor complexes were determined via dilution ITC following our previously established protocol. 4 Purified complexes in Tpx buffer were titrated to Tpx buffer, and the heat signals of each injection was recorded. To observe dimer dissociation, measurements were conducted with 78 µM (Tpx/para-CFT), 122 µM (Tpx/meta-CFT), 277 µM (Tpx/ortho-CFT), 821 µM (Tpx/CtFT), and 176 µM (Tpx/CPT). A MicroCal PEAQ-ITC Automated […]
1, 3 and 5. After the initial wait time of 2 min, 19 serial injections of 2 μL with a spacing of 3 min where performed. The reference power was set to 11 μcal sec-1 and stirring speed to 750 rpm. A MicroCal PEAQ-ITC (Malvern Panalytical) with the same experimental setup was used to determine the KD value of covalent Tpx WT complexes with meta-CFT (2, 10 injections), and CtFT (4, 20 injections). Each titration was performed in a technical triplicate, and controls included water to water and unmodified Tpx to buffer titrations. Transferability between instruments was checked by repeating the Tpx/para -CFT […]
titration. […]

Tryparedoxin = biological target: T2, Tryparedoxin; test: dilution ITC
[4] = bloodstream form T. brucei brucei 449, 24 h incubation, read-out: EC50 (24 h)
[5] = bloodstream form T. brucei brucei 449, 48 h incubation, read-out: EC50 (48 h)

Molecule	Selectivity index (24 h), EC50 HEK293 cells divided by EC50 T. brucei [1]	EC50 [1, 4] [nM]	EC50 [1, 5] [nM]	SEC-MALS Mw of Tpx/inhibitor complex (Tpx [2]) [kDa]	EC50 (HEK293 cells) [nM]	oligomeric state of inhibitor-bound Tpx by SEC-MALS (Tpx [2]; 100 µM analyte concentration)	second-order rate constant k2nd of irreversible Tpx inhibition (Tpx [3]) [M⁻¹ s⁻¹]	speed of Tpx inactivation (Tpx [3])	portion of Tpx WT/inhibitor complex dimeric (Tpx WT; 750 µM analyte) [%]	portion of Tpx WT/inhibitor complex dimeric (Tpx WT; 100 µM analyte) [%]	Kd (Tryparedoxin) [nM]
O=c1[nH]c(CCl)nc2scc(-c3ccccc3)c12 [CPT, 2-(chloromethyl)-5-phenylthieno[2,3-d]pyrimidin-4(3H)-one]	8.2 ± 4.2	600 ± 300	1400 ± 400	19.5 ± 0.6	4900 ± 600	–	–	–	–	–	–
O=c1[nH]c(CCl)nc2scc(-c3ccc(C(F)(F)F)cc3)c12 [CtFT, 2-(chloromethyl)-5-(4-(trifluoromethyl)phenyl)thieno[2,3-d]pyrimidin-4(3H)-one]	1.8 ± 0.5	2200 ± 600	2500 ± 600	16.6 ± 0.7	3900 ± 300	remained monomeric	1870 ± 17	fastest	–	–	–
O=c1[nH]c(CCl)nc2scc(-c3cccc(F)c3)c12 [meta-CFT, 2-(chloromethyl)-5-(3-fluorophenyl)thieno[2,3-d]pyrimidin-4(3H)-one]	5.0 ± 1.6	1300 ± 400	1100 ± 500	23.6 ± 0.9	6500 ± 500	–	933 ± 17	slowest	–	–	–
O=c1[nH]c(CCl)nc2scc(-c3ccccc3F)c12 [ortho-CFT, 2-(chloromethyl)-5-(2-fluorophenyl)thieno[2,3-d]-pyrimidin-4(3H)-one]	5.0 ± 1.6	1000 ± 300	800 ± 300	17.5 ± 0.9	5000 ± 600	–	–	fastest	87	–	–
O=c1[nH]c(CCl)nc2scc(-c3ccc(F)cc3)c12 [para-CFT, 2-(chloromethyl)-5-(4-fluorophenyl)-thieno[2,3-d]pyrimidin-4(3H)-one]	3.0 ± 0.8	1300 ± 300	1500 ± 300	21.3 ± 1.1	3900 ± 400	–	–	–	–	85	–
B1	–	–	–	–	–	–	–	–	–	–	3700
B2	–	–	–	–	–	–	–	–	–	–	410000
